Experimental data from ChEMBL document CHEMBL3885861, “Open TG-GATES”.

Organism: Rattus norvegicus
Assay: Open TG-GATES - Regimen: Daily Repeat
Type: toxicity, organism-based, Sprague-Dawley
Design: regimen Daily Repeat, gender Male, age 6 weeks
Conditions: in vivo, po, route gavage; for TC / TG / TP / gamma-GTP / A/G / ALP / ALT / AST / BUN / CRE / Ca / Cl / GLC / IP / K / LDH / Na / PL / RALB: tissue Plasma; for APTT / Bas / Eos / Fbg / Hb / Ht / Lym / MCH / MCHC / MCV / Mono / Neu / PT / Plat / RBC / Ret / WBC: tissue Blood; for KIDNEY_L / KIDNEY_R / KIDNEY_TOTAL: tissue Kidney; for LIVER: tissue Liver
[1] = 100 mg/kg, […], dose level Low, time 28 day
[2] = 300 mg/kg, 72 h, dose level Middle, time 3 day
[3] = 300 mg/kg, […], dose level Middle, time 7 day
[4] = 300 mg/kg, […], dose level Middle, time 14 day
[5] = 300 mg/kg, […], dose level Middle, time 28 day
[6] = 1000 mg/kg, 72 h, dose level High, time 3 day
[7] = 1000 mg/kg, […], dose level High, time 7 day
[8] = 1000 mg/kg, […], dose level High, time 14 day
[9] = 1000 mg/kg, […], dose level High, time 28 day

## O=C(O)c1ccccc1Nc1ccccc1 [FENAMIC ACID]
[1]
  TC: 76.6 mg/dL
  TG: 129.6 mg/dL
  TP: 6.2 g/dL
  gamma-GTP: 1 IU/L
[2]
  TERMINAL_BW: 241.8 g
  APTT: 15.8 s
  Bas: 0.4%
  Eos: 1%
  Fbg: 293.6 mg/dL
  Hb: 13.4 g/dL
  Ht: 40.1%
  Lym: 74.2%
  MCH: 20.9 pg
  MCHC: 33.4%
  MCV: 62.8 fL
  Mono: 2.8%
  Neu: 21.8%
  PT: 14 s
  Plat: 137.1 x10_4/uL
  RBC: 639.6 x10_4/ul
  Ret: 6.8%
  WBC: 91.3 x10_2/uL
  KIDNEY_L: 1 g
  KIDNEY_R: 1 g
  KIDNEY_TOTAL: 1.9 g
  LIVER: 12 g
  A/G: 0.9
  ALP: 1538.8 IU/L
  ALT: 37.4 IU/L
  AST: 64.8 IU/L
  BUN: 14.2 mg/dL
  CRE: 0.2 mg/dL
  Ca: 11.6 mg/dL
  Cl: 105.8 meq/L
  GLC: 183 mg/dL
  IP: 6.4 mg/dL
  K: 4.3 meq/L
  LDH: 119.8 IU/L
  Na: 142.8 meq/L
  PL: 156 mg/dL
  RALB: 2.7 g/dL
  TC: 82.4 mg/dL
  TG: 99.4 mg/dL
  TP: 5.7 g/dL
  gamma-GTP: 1.6 IU/L
[3]
  TERMINAL_BW: 275.7 g
  APTT: 16.6 s
  Bas: 0.6%
  Eos: 1.2%
  Fbg: 313 mg/dL
  Hb: 13.6 g/dL
  Ht: 40.4%
  Lym: 80.6%
  MCH: 20.8 pg
  MCHC: 33.7%
  MCV: 61.5 fL
  Mono: 2.4%
  Neu: 15.2%
  PT: 13.9 s
  Plat: 137.6 x10_4/uL
  RBC: 656.8 x10_4/ul
  Ret: 6.2%
  WBC: 89.7 x10_2/uL
  KIDNEY_L: 1.3 g
  KIDNEY_R: 1.2 g
  KIDNEY_TOTAL: 2.5 g
  LIVER: 13.4 g
  A/G: 0.9
  ALP: 1312 IU/L
  ALT: 36.6 IU/L
  AST: 63.4 IU/L
  BUN: 26.8 mg/dL
  CRE: 0.3 mg/dL
  Ca: 11.8 mg/dL
  Cl: 103.8 meq/L
  GLC: 185 mg/dL
  IP: 7 mg/dL
  K: 4.6 meq/L
  LDH: 108 IU/L
  Na: 143.6 meq/L
  PL: 150.4 mg/dL
  RALB: 2.8 g/dL
  TC: 80.8 mg/dL
  TG: 91.6 mg/dL
  TP: 6 g/dL
  gamma-GTP: 1.6 IU/L
[4]
  TERMINAL_BW: 344.9 g
  APTT: 15.8 s
  Bas: 0.8%
  Eos: 0.8%
  Fbg: 296 mg/dL
  Hb: 14.4 g/dL
  Ht: 42.2%
  Lym: 79.8%
  MCH: 20.1 pg
  MCHC: 34.2%
  MCV: 58.6 fL
  Mono: 2.2%
  Neu: 16.4%
  PT: 13.8 s
  Plat: 131.5 x10_4/uL
  RBC: 719.6 x10_4/ul
  Ret: 4.7%
  WBC: 104.7 x10_2/uL
  KIDNEY_L: 1.4 g
  KIDNEY_R: 1.4 g
  KIDNEY_TOTAL: 2.7 g
  LIVER: 16.2 g
  A/G: 0.8
  ALP: 1463.6 IU/L
  ALT: 36.8 IU/L
  AST: 58.4 IU/L
  BUN: 15.8 mg/dL
  CRE: 0.3 mg/dL
  Ca: 11.3 mg/dL
  Cl: 104 meq/L
  GLC: 178 mg/dL
  IP: 6.5 mg/dL
  K: 4 meq/L
  LDH: 102.2 IU/L
  Na: 144.2 meq/L
  PL: 160.8 mg/dL
  RALB: 2.8 g/dL
  TC: 80.8 mg/dL
  TG: 117.2 mg/dL
  TP: 6.2 g/dL
  gamma-GTP: 1.2 IU/L
[5]
  TERMINAL_BW: 435 g
  APTT: 17.6 s
  Bas: 0.4%
  Eos: 1.4%
  Fbg: 314.2 mg/dL
  Hb: 14.8 g/dL
  Ht: 42.7%
  Lym: 79.8%
  MCH: 18.8 pg
  MCHC: 34.7%
  MCV: 54.1 fL
  Mono: 2.6%
  Neu: 15.8%
  PT: 14.1 s
  Plat: 119.3 x10_4/uL
  RBC: 789.8 x10_4/ul
  Ret: 2.7%
  WBC: 92.3 x10_2/uL
  KIDNEY_L: 1.5 g
  KIDNEY_R: 1.5 g
  KIDNEY_TOTAL: 3 g
  LIVER: 19 g
  A/G: 0.8
  ALP: 942.2 IU/L
  ALT: 31 IU/L
  AST: 53.2 IU/L
  BUN: 15.6 mg/dL
  CRE: 0.3 mg/dL
  Ca: 11.3 mg/dL
  Cl: 103.8 meq/L
  GLC: 186.6 mg/dL
  IP: 6.7 mg/dL
  K: 4 meq/L
  LDH: 107.6 IU/L
  Na: 144.6 meq/L
  PL: 161.8 mg/dL
  RALB: 2.9 g/dL
  TC: 82.2 mg/dL
  TG: 100.8 mg/dL
  TP: 6.4 g/dL
  gamma-GTP: 1 IU/L
[6]
  TERMINAL_BW: 219.3 g
  APTT: 17 s
  Bas: 0.3%
  Eos: 0.7%
  Fbg: 440 mg/dL
  Hb: 13.3 g/dL
  Ht: 39.3%
  Lym: 50.3%
  MCH: 20.5 pg
  MCHC: 33.8%
  MCV: 60.5 fL
  Mono: 3.3%
  Neu: 44.3%
  PT: 14 s
  Plat: 127 x10_4/uL
  RBC: 650 x10_4/ul
  Ret: 5.7%
  WBC: 132.2 x10_2/uL
  KIDNEY_L: 1.1 g
  KIDNEY_R: 1.1 g
  KIDNEY_TOTAL: 2.1 g
  LIVER: 10.8 g
  A/G: 0.9
  ALP: 1423.7 IU/L
  ALT: 37.7 IU/L
  AST: 58.3 IU/L
  BUN: 17 mg/dL
  CRE: 0.2 mg/dL
  Ca: 11.4 mg/dL
  Cl: 109 meq/L
  GLC: 165.7 mg/dL
  IP: 6.6 mg/dL
  K: 4.4 meq/L
  LDH: 100.3 IU/L
  Na: 143.3 meq/L
  PL: 148.7 mg/dL
  RALB: 2.5 g/dL
  TC: 67 mg/dL
  TG: 89.3 mg/dL
  TP: 5.3 g/dL
  gamma-GTP: 1.3 IU/L
[7]
  TERMINAL_BW: 253.6 g
  APTT: 16.6 s
  Bas: 1%
  Eos: 0.7%
  Fbg: 290.7 mg/dL
  Hb: 12.6 g/dL
  Ht: 37%
  Lym: 72.3%
  MCH: 20.5 pg
  MCHC: 34%
  MCV: 60.2 fL
  Mono: 3%
  Neu: 23.3%
  PT: 14.1 s
  Plat: 156 x10_4/uL
  RBC: 616 x10_4/ul
  Ret: 7.7%
  WBC: 161.4 x10_2/uL
  KIDNEY_L: 1.1 g
  KIDNEY_R: 1.1 g
  KIDNEY_TOTAL: 2.3 g
  LIVER: 12.5 g
  A/G: 0.9
  ALP: 1573.3 IU/L
  ALT: 38 IU/L
  AST: 62.7 IU/L
  BUN: 20 mg/dL
  CRE: 0.3 mg/dL
  Ca: 11.5 mg/dL
  Cl: 107 meq/L
  GLC: 177.3 mg/dL
  IP: 6.3 mg/dL
  K: 4.3 meq/L
  LDH: 117 IU/L
  Na: 144 meq/L
  PL: 155.7 mg/dL
  RALB: 2.6 g/dL
  TC: 87.7 mg/dL
  TG: 75.3 mg/dL
  TP: 5.6 g/dL
  gamma-GTP: 1 IU/L
[8]
  TERMINAL_BW: 281.5 g
  APTT: 32.8 s
  Bas: 0.7%
  Eos: 0.3%
  Fbg: 473.3 mg/dL
  Hb: 14 g/dL
  Ht: 41.7%
  Lym: 53.3%
  MCH: 21.1 pg
  MCHC: 33.5%
  MCV: 63.2 fL
  Mono: 3.7%
  Neu: 41.7%
  PT: 13.2 s
  Plat: 171.8 x10_4/uL
  RBC: 674 x10_4/ul
  Ret: 13.6%
  WBC: 149.3 x10_2/uL
  KIDNEY_L: 2.1 g
  KIDNEY_R: 1.8 g
  KIDNEY_TOTAL: 4 g
  LIVER: 13.5 g
  A/G: 0.9
  ALP: 1270.3 IU/L
  ALT: 38.3 IU/L
  AST: 57.3 IU/L
  BUN: 118.3 mg/dL
  CRE: 0.5 mg/dL
  Ca: 11.8 mg/dL
  Cl: 105.7 meq/L
  GLC: 156.7 mg/dL
  IP: 11 mg/dL
  K: 5.2 meq/L
  LDH: 210 IU/L
  Na: 145.3 meq/L
  PL: 140.7 mg/dL
  RALB: 2.9 g/dL
  TC: 65 mg/dL
  TG: 94.7 mg/dL
  TP: 6.3 g/dL
  gamma-GTP: 2 IU/L
[9]
  TERMINAL_BW: 383.3 g
  APTT: 17.1 s
  Bas: 0%
  Eos: 0.5%
  Fbg: 334.5 mg/dL
  Hb: 12.2 g/dL
  Ht: 36%
  Lym: 69%
  MCH: 19.6 pg
  MCHC: 34%
  MCV: 57.6 fL
  Mono: 2.5%
  Neu: 27.5%
  PT: 13.9 s
  Plat: 139.6 x10_4/uL
  RBC: 626 x10_4/ul
  Ret: 7.5%
  WBC: 154.4 x10_2/uL
  KIDNEY_L: 1.7 g
  KIDNEY_R: 1.6 g
  KIDNEY_TOTAL: 3.3 g
  LIVER: 18.7 g
  A/G: 0.9
  ALP: 1013.5 IU/L
  ALT: 36.5 IU/L
  AST: 61.5 IU/L
  BUN: 20 mg/dL
  CRE: 0.3 mg/dL
  Ca: 10.8 mg/dL
  Cl: 105 meq/L
  GLC: 182.5 mg/dL
  IP: 5.5 mg/dL
  K: 4.2 meq/L
  LDH: 155.5 IU/L
  Na: 144.5 meq/L
  PL: 166 mg/dL
  RALB: 2.5 g/dL
  TC: 80 mg/dL
  TG: 92 mg/dL
  TP: 5.5 g/dL
  gamma-GTP: 1 IU/L
